In ChEMBL document CHEMBL1201862, “PubChem BioAssay data set” (2004):
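Cells were grown in 96-well plates and exposed to each compound for 48 hours at five concentrations; endpoints were interpolated linearly between bracketing concentrations, or set to the highest concentration if not reached. GI50 = concentration required for 50% inhibition of growth.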 Active and inactive are the calls of the source. Rule as the data show it: active = GI50 up to about 1.1 µM and inactive = higher.

What was measured:
Assay in all cases: DTP human tumour cell line panel, 48 h
786-0 = test system: 786-0
A498 = test system: A498
A549 = test system: A549
ACHN = test system: ACHN
CAKI-1 = test system: CAKI-1
CCRF-CEM = test system: CCRF-CEM
COLO 205 = test system: COLO 205
DLD-1 = test system: DLD-1
DMS-114 = test system: DMS-114
DMS-273 = test system: DMS-273
EKVX = test system: EKVX
HCC 2998 = test system: HCC 2998
HCT-15 = test system: HCT-15
HL-60 = test system: HL-60
HOP-18 = test system: HOP-18
HOP-62 = test system: HOP-62
HT-29 = test system: HT-29
IGROV-1 = test system: IGROV-1
K562 = test system: K562
KM12 = test system: KM12
LOX IMVI = test system: LOX IMVI
LXFL 529 = test system: LXFL 529
M14 = test system: M14
M19-MEL = test system: M19-MEL
MOLT-4 = test system: MOLT-4
Malme-3M = test system: Malme-3M
NCI-H226 = test system: NCI-H226
NCI-H23 = test system: NCI-H23
NCI-H522 = test system: NCI-H522
OVCAR-3 = test system: OVCAR-3
OVCAR-4 = test system: OVCAR-4
OVCAR-5 = test system: OVCAR-5
OVCAR-8 = test system: OVCAR-8
RPMI-8226 = test system: RPMI-8226
RXF 393 = test system: RXF 393
SF-268 = test system: SF-268
SF-295 = test system: SF-295
SF-539 = test system: SF-539
SK-MEL-28 = test system: SK-MEL-28
SK-MEL-2 = test system: SK-MEL-2
SK-MEL-5 = test system: SK-MEL-5
SK-OV-3 = test system: SK-OV-3
SN12C = test system: SN12C
SNB-19 = test system: SNB-19
SNB-75 = test system: SNB-75
SNB-78 = test system: SNB-78
SW-620 = test system: SW-620
TK-10 = test system: TK-10
U-251 = test system: U-251
UACC-257 = test system: UACC-257
UACC-62 = test system: UACC-62
UO-31 = test system: UO-31

With `Cc1cc(N(CCC#N)CCC#N)ccc1/N=N/c1cc(Cl)ccc1Cl` the GI50 (786-0) was 14.6 µM (inactive), the GI50 (A498) was 20.1 µM (inactive) and the GI50 (A549) was 19.2 µM (inactive). For the same compound, the GI50 (ACHN) was 12.8 µM (inactive), the GI50 (CAKI-1) was 3.5 µM (inactive) and the GI50 (CCRF-CEM) was 2.92 µM (inactive). The GI50 (COLO 205) was 2.04 µM (inactive), the GI50 (DLD-1) was 10.6 µM (inactive) and the GI50 (DMS-114) was 6.59 µM (inactive). For the same compound, the GI50 (DMS-273) was 14.4 µM (inactive), the GI50 (EKVX) was 13.6 µM (inactive) and the GI50 (HCC 2998) was 16.6 µM (inactive). The GI50 (HCT-15) was 2050 nM, the GI50 (HL-60) was 3.39 µM (inactive) and the GI50 (HOP-18) was 10.2 µM (inactive). The GI50 (HOP-62) was 19.5 µM (inactive), the GI50 (HT-29) was 2.64 µM (inactive) and the GI50 (IGROV-1) was 15.1 µM (inactive). The GI50 (K562) was 2.78 µM (inactive), the GI50 (KM12) was 15.2 µM (inactive) and the GI50 (LOX IMVI) was 3.62 µM (inactive). The GI50 (LXFL 529) was 1.7 µM (inactive), the GI50 (M14) was 3.46 µM (inactive) and the GI50 (M19-MEL) was 13.7 µM (inactive). The GI50 (MOLT-4) was 5.13 µM (inactive), the GI50 (Malme-3M) was 4.98 µM (inactive) and the GI50 (NCI-H226) was 6.38 µM (inactive). The GI50 (NCI-H23) was 13.4 µM (inactive), the GI50 (NCI-H522) was 1.49 µM (inactive) and the GI50 (OVCAR-3) was 5.51 µM (inactive). The GI50 (OVCAR-4) was 3.07 µM (inactive), the GI50 (OVCAR-5) was 14.4 µM (inactive) and the GI50 (OVCAR-8) was 7.74 µM (inactive). The GI50 (RPMI-8226) was 5.35 µM (inactive), the GI50 (RXF 393) was 10.5 µM (inactive) and the GI50 (SF-268) was 15.6 µM (inactive). For the same compound, the GI50 (SF-295) was 19.6 µM (inactive), the GI50 (SF-539) was 6.28 µM (inactive) and the GI50 (SK-MEL-28) was 7.87 µM (inactive). For the same compound, the GI50 (SK-MEL-2) was 17.3 µM (inactive), the GI50 (SK-MEL-5) was 16.4 µM (inactive) and the GI50 (SK-OV-3) was 16.3 µM (inactive). For the same compound, the GI50 (SN12C) was 13.4 µM (inactive), the GI50 (SNB-19) was 17.5 µM (inactive) and the GI50 (SNB-75) was 13 µM (inactive). For the same compound, the GI50 (SNB-78) was 6.22 µM (inactive), the GI50 (SW-620) was 2.36 µM (inactive) and the GI50 (TK-10) was 11.1 µM (inactive). The GI50 (U-251) was 18.3 µM (inactive), the GI50 (UACC-257) was 10.7 µM (inactive) and the GI50 (UACC-62) was 10.1 µM (inactive). The GI50 (UO-31) was 16.7 µM (inactive).
